Reference: patent publication US20040034019A1, “Piperazine and piperidine derivatives” (priority 2002, published 2004)
Where a name gives a salt, the structure may show the parent alone.

Tested on: rat embryo ventral mesencephalic cells
Experiment: Neuroprotection assay (NMDA neuroexcitotoxic injury, high affinity 3H-dopamine uptake)
Assay type: cell-based, Sprague-Dawley rat
Conditions: embryonic day 15 rat VM cell culture, NMDA (100-400 μM) for 20 hours
Source text: The neuroprotective activity of the compounds of this invention may be assayed using rat embryo ventral mesencephalic cells in culture which are subsequently exposed to the glutamate receptor agonist NMDA. This assay is described in detail in the example section.
The ventral mesencephalic region was dissected out of embryonic day 15 Sprague-Dawley rat embryos (Harlan), dissociated into single cell suspension by a combination of trypsinization and trituration (Costantini et al., Neurobiol Dis., pp. 97-106 (1998). Dissociated VM cells were plated into poly-L-ornithine-coated 96-well plates at a density of 85,000 cells/well in 100 uL of DMEM supplemented with 18% heat-inactivated horse serum, 0.24% glucose, 2 mM glutamine and 50 u/ml penicillin/streptomycin and incubated in a 5% CO2 incubator. After one day in culture (DIV1), the medium was replaced with 100 μL of a defined medium (DMEM supplemented with 1× N2 cocktail (Gibco-BRL), 0.12% glucose, 2 mM glutamine, and 50 units/ml penicillin/streptomycin) containing DMSO or various concentrations of the compounds of this invention. On DIV5, neuroexcitotoxic injury was induced by the addition of various concentrations of the glutamate receptor agonist NMDA (100-400 μM). Cultures were incubated with the neurotoxin for 20 hours and the effects of neurophilin compounds were assessed using high affinity ^3H-dopamine uptake according to a procedure published by Park and Mytilineou [Brain Res., 599, pp. 83-97 (1992)].

Row | SMILES | EC50 [nM]
1 | CCN1CCCC[C@H]1C(=O)N1C[C@@H]2C[C@H]1CN2Cc1ccccc1 (stereo in doubt) [Compound 24, 1-(5-benzyl-2,5-diaza-bicyclo[2.2.1]-hept-2-yl)-1-((S)-1-ethyl-piperidino-2-yl)-methanone] | > 500
2 | CCN1CCCC[C@H]1C(=O)N1CCN(c2ccccn2)CC1 [Compound 2] | > 500
3 | CN1CCC=C(C(=O)N2CCN(C(c3ccccc3)c3ccccc3)CC2)C1 [Compound 4] | > 500
4 | O=C([C@@H]1CCCN1Cc1ccccc1)N1CCN(C(c2ccccc2)c2ccccc2)CC1 [Compound 7] | < 100
5 | CN1CCC[C@H]1C(=O)N1CCN(C(c2ccccc2)c2ccccc2)CC1 [Compound 8] | > 500
6 | CN1CCC(C(=O)N2CCN(C(c3ccccc3)c3ccccc3)CC2)CC1 [Compound 11] | > 500
7 | CCN1CCCC[C@H]1C(=O)N1C[C@@H]2C[C@H]1CN2C(c1ccccc1)c1ccccc1 [Compound 17, 1-[(1S, 4S)-5-(1,1-Diphenylmethyl)-5-diazabicyclo[2.2.1]-hept-2-yl]-1-((S)-1-ethylpiperidin-2-yl)methanone] | 100 to 500
8 | O=C1C[C@@H](C(=O)N2CCC(Cc3ccccc3)CC2)N(Cc2ccccc2)C1 [Compound 29, (2S)-1-Benzyl-5-(4-benzylpiperidine-1-carbonyl)-pyrrolidin-3-one] | 100 to 500
9 | CON=C1C[C@@H](C(=O)N2CCC(Cc3ccccc3)CC2)N(Cc2ccccc2)C1 [Compound 31, (2S)-1-Benzyl-5-(4-benzylpiperidine-1-carbonyl)-pyrrolidin-3-one O-methyl-oxime] | 100 to 500
10 | CCN1CCCC[C@H]1C(=O)N1CCN(c2ccccc2)CC1 [Compound 39, ((2S)-1-Ethylpiperidin-2-yl)-(4-phenylpiperazin-1-yl)-methanone dihydrochloride] | < 100
11 | CCN1CCCC[C@H]1C(=O)N1CCN(C(c2ccccc2)c2ccc(F)cc2)CC1 (stereo partly drawn) [Compound 42, ((2S)-1-Ethylpiperidin-2-yl)-{4-[(4-fluorophenyl)phenylmethy]-piperazin-1-yl}-methanone dihydrochloride] | < 100
12 | O=C([C@@H]1CCCN1Cc1ccccc1)N1CCN(C(c2ccc(F)cc2)c2ccc(F)cc2)CC1 [Compound 51, ((2S)-1-Benzylpyrrolidin-2-yl)-{4-bis-(4-fluorophenyl)methyl]-piperazin-1-yl}-methanone dihydrochloride] | > 500
13 | C=CCN1CCCC[C@H]1C(=O)N1CCN(C(c2ccc(F)cc2)c2ccc(F)cc2)CC1 [Compound 64, ((2S)-1-Allylpiperidin-2-yl)-{4-[bis-(4-fluorophenyl)methyl]-piperazin-1-yl}-methanone] | > 500
14 | CCN1CCCC[C@H]1C(=O)N1CCN(CCCc2ccccc2)CC1 [Compound 70, ((2S)-1-Ethylpiperidin-2-yl)-[4-(3-phenylpropyl)-piperazin-1-yl]-methanone dihydrochloride] | 100 to 500
15 | CCN1CCCC[C@H]1C(=O)N1CCN(Cc2ccc(Cl)cc2)CC1 [Compound 72, [4-(4-Chlorobenzyl)-piperazin-1-yl]-((2S)-1-ethylpiperidin-2-yl)-methanone dihydrochloride] | > 500
16 | CCN1CCCC[C@H]1C(=O)N1CCN(Cc2cccs2)CC1 [Compound 73, ((2S)-1-Ethylpiperidin-2-yl)-(4-thiophen-2-ylmethylpiperazin-1-yl)-methanone dihydrochloride] | > 500
17 | CCN1CCCC[C@H]1CN1CCN(C(c2ccc(F)cc2)c2ccc(F)cc2)CC1 [Compound 102, 1-[Bis-(4-fluorophenyl)methyl)-4-((2S)-1-ethylpiperidin-2-ylmethyl)-piperazine.] | < 100
18 | CN1CSC(C)(C)[C@H]1C(=O)N1CCC(Cc2ccccc2)CC1 [Compound 200] | 100 to 500
19 | CCN1CC=C[C@H]1C(=O)N1CCN(C(c2ccc(F)cc2)c2ccc(F)cc2)CC1 [Compound 201] | > 500
20 | CCN1C[C@H]2C[C@@H]2C1C(=O)N1CCN(C(c2ccc(F)cc2)c2ccc(F)cc2)CC1 (stereo partly drawn) [Compound 203] | 100 to 500
21 | CCN1CC[C@H](C)[C@H]1C(=O)N1CCN(C(c2ccc(F)cc2)c2ccc(F)cc2)CC1 [Compound 205] | < 100
22 | CN1[C@@H](C(=O)N2CCC(Cc3ccccc3)CC2)CC[C@H]1c1ccccc1 [Compound 206] | < 100
23 | CCN1C(C)CC[C@H]1C(=O)N1CCN(C(c2ccc(F)cc2)c2ccc(F)cc2)CC1 (stereo partly drawn) [Compound 207] | 100 to 500

Row | SMILES | EC50 [nM]
24 | CCN1CCC[C@]1(C)C(=O)N1CCN(C(c2ccc(F)cc2)c2ccc(F)cc2)CC1 [Compound 209] | 100 to 500
25 | CCN1CSC[C@H]1C(=O)N1CCN(C(c2ccc(F)cc2)c2ccc(F)cc2)CC1 [Compound 211] | > 500
26 | CCN1[C@@H](C(=O)N2CCN(C(c3ccc(F)cc3)c3ccc(F)cc3)CC2)CC[C@H]1c1ccccc1 [Compound 213] | > 500
27 | CCN1C[C@H](c2ccccc2)C[C@H]1C(=O)N1CCN(C(c2ccc(F)cc2)c2ccc(F)cc2)CC1 [Compound 215] | > 500
28 | CN1CSC(C)(C)[C@H]1C(=O)N1CCN(C(c2ccc(F)cc2)c2ccc(F)cc2)CC1 [Compound 216] | > 500
29 | CCN1CC[C@@H](c2ccccc2)[C@H]1C(=O)N1CCN(C(c2ccc(F)cc2)c2ccc(F)cc2)CC1 [Compound 217] | > 500
30 | O=C([C@@H]1C=CCN1Cc1ccccc1)N1CCC(Cc2ccccc2)CC1 [Compound 219] | 100 to 500
31 | O=C(C1[C@H]2C[C@@H]2CN1Cc1ccccc1)N1CCC(Cc2ccccc2)CC1 (stereo partly drawn) [Compound 221] | < 100
32 | CN1[C@@H](C(=O)N2CCN(C(c3ccc(F)cc3)c3ccc(F)cc3)CC2)CC[C@H]1c1ccccc1 [Compound 222] | > 500
33 | C[C@H]1CCN(Cc2ccccc2)[C@@H]1C(=O)N1CCC(Cc2ccccc2)CC1 [Compound 223] | < 100
34 | CN1C[C@H](c2ccccc2)C[C@H]1C(=O)N1CCN(C(c2ccc(F)cc2)c2ccc(F)cc2)CC1 [Compound 224] | > 500
35 | CCN1[C@@H](c2ccccc2)CC[C@H]1C(=O)N1CCN(C(c2ccc(F)cc2)c2ccc(F)cc2)CC1 [Compound 225] | < 100
36 | CC1CC[C@@H](C(=O)N2CCC(Cc3ccccc3)CC2)N1Cc1ccccc1 (stereo partly drawn) [Compound 227] | 100 to 500
37 | CN1CSC(C)(C)[C@@H]1C(=O)N1CCC(Cc2ccccc2)CC1 [Compound 228] | > 500
38 | C[C@@]1(C(=O)N2CCC(Cc3ccccc3)CC2)CCCN1Cc1ccccc1 [Compound 229] | > 500
39 | CN1CSC(C)(C)[C@@H]1C(=O)N1CCN(C(c2ccc(F)cc2)c2ccc(F)cc2)CC1 [Compound 230] | > 500
40 | O=C([C@H]1CC[C@@H](c2ccccc2)N1Cc1ccccc1)N1CCC(Cc2ccccc2)CC1 [Compound 231] | 100 to 500
41 | CCN1CC[C@H]1C(=O)N1CCC(Cc2ccccc2)CC1 [Compound 232] | 100 to 500
42 | O=C([C@@H]1CC[C@H](c2ccccc2)N1Cc1ccccc1)N1CCC(Cc2ccccc2)CC1 [Compound 233] | 100 to 500
43 | CCN1CC=C[C@H]1C(=O)N1CCC(Cc2ccccc2)CC1 [Compound 234] | > 500
44 | O=C([C@@H]1[C@H](c2ccccc2)CCN1Cc1ccccc1)N1CCC(Cc2ccccc2)CC1 [Compound 235] | > 500
45 | CCN1C[C@H]2C[C@@H]2C1C(=O)N1CCC(Cc2ccccc2)CC1 (stereo partly drawn) [Compound 236] | 100 to 500
